“And” between values parts separate entries of the source, which are not always exact repeats. Equal entries are not always repeated.

Experiment [1] deals with T1, STAT5B NTD (Homo sapiens, UniProt P51692).
T1 construct: His-SUMO (N, cleaved yes); made in house; host or cells: E. coli BL21 RILP
T1 sequence (P51692 1-123): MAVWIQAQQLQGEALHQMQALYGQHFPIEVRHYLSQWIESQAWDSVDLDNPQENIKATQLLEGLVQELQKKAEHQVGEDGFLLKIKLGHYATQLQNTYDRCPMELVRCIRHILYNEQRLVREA
The experiment is described as follows: Microscale thermophoresis (MST), without irradiation. It counts as binding. To be noted: for ΔFnorm: Fnorm - Unbound value, Php097 concentration [log; for Fnorm: MST raw data, PhP097 concentration [log. Here is the method: For the microscale thermophoresis (MST) studies, we prepared 16 two-fold serial dilutions of compounds starting from 500 μM. Titration series were prepared that contained 10 μL of compounds’ solutions of varying concentrations and 10 μL RED-NHS 2nd Generation labeled STAT5B NTD with a concentration of 168 nM for compound PhP097, and a concentration of 84 nM for compound PhP065. Final buffer composition included 1X PBS containing 0.5% DMSO. All measurements were taken in Premium Coated Capillaries on a Monolith NT.115 instrument (NanoTemper Technologies, Munich, Germany) using 80% infrared laser power for compound PhP097, 60% infrared laser power for compound PhP065, and an LED excitation source with λ = 650 nm at a temperature of 25 °C. Results were expressed as the mean of two separate experiments, with three technical replicates each. GraphPad Prism 9.5.1 software was used to fit the data and to determine the KD values.
(In general: In MST a laser heats a spot of the sample, and binding alters the fluorescence response.)

The subject of experiment [2] is MOLM-13 cells. The experiment is described as follows: CellTiter-Blue cell viability assay, MOLM-13. The settings on record: Homo sapiens, MOLM-13, 72 h. The class given is cell-based. Here is the method: MV4-11 and MOLM-13 cell lines were purchased from DSMZ (Braunschweig, Germany), and grown at 37 °C and 5% CO2 in RPMI 1640 medium (Gibco^TM, Thermo Fisher Scientific). Media were supplemented with 10% fetal calf serum (FCS), 10 U/mL penicillin, 10 µg/mL streptomycin and 2 mM L-glutamine (all Gibco^TM, Thermo Fisher Scientific).
To determine the IC50 of the selected compounds on the cell lines, CellTiter-Blue® cell viability assay (Promega) was performed. For this, cells were seeded in 96-well flat bottom plates at a cell density of 10,000 cells/well. Cells were treated in triplicates with the compound of interest at various concentrations or with 10 μM Bortezomib (S1013; Selleck Chemicals, Houston, TX, USA) as a positive control. Cell viability of treated cell lines was measured using CellTiter-Blue® after 72 h incubation. Plates were measured using a GloMax® plate reader (Promega) and IC50 values were determined by non-linear regression using the GraphPad Prism 9.1.1 (GraphPad Software, Inc.) and the data are reported as mean values ± SEM.
On the technique in general: Alamar Blue is a resazurin reagent that responds to reducing activity.

Setting [3] is: µM] -0.0102833, runs/replicates.

As to `CC1(CCC(=O)NCCc2csc(-c3ccccc3)n2)N=N1` [PhP097, N1=NC1(C)CCC(=O)NCCc2csc(n2)-c3ccccc3], the ΔFnorm was 5.764 ‰ and 7.778 ‰ and 6.699 ‰ and -1.199 ‰ and -1.302 ‰ and -4.005 ‰ in experiment [1] (µM] 0.591766, runs/replicates); -7.395 ‰ and -5.5397 ‰ and -5.711 ‰ and 0.2163 ‰ and 4.053 ‰ and 0.9615 ‰ in experiment [1] (µM] 0.89279, runs/replicates); -4.091 ‰ and -1.8497 ‰ and -1.165 ‰ and -5.318 ‰ and -5.614 ‰ and -5.274 ‰ in experiment [1] (µM] 1.19382, runs/replicates); -4.445 ‰ and -4.535 ‰ and -5.873 ‰ and -8.126 ‰ and -4.727 ‰ and -7.108 ‰ in experiment [1] (µM] 1.49485, runs/replicates); -8.587 ‰ and -6.363 ‰ and -6.457 ‰ and -11.6433 ‰ and -8.368 ‰ and -12.1062 ‰ in experiment [1] (µM] 1.79588, runs/replicates); -14.77 ‰ and -11.6203 ‰ and -10.8651 ‰ and -10.9408 ‰ and -5.699 ‰ and -12.7461 ‰ in experiment [1] (µM] 2.09691, runs/replicates). Moreover, the ΔFnorm is -1.7884 ‰ and 0.2047 ‰ and 0.7983 ‰ and -10.6185 ‰ and -13.0284 ‰ and -12.5258 ‰ in experiment [1] (µM] 2.39794, runs/replicates); 4.6455 ‰ and 5.66 ‰ and 7.637 ‰ and -9.481 ‰ and -8.884 ‰ and -7.417 ‰ in experiment [1] (setting [3]); -5.603 ‰ and -3.243 ‰ and -1.459 ‰ and 3.271 ‰ and 2.052 ‰ and 1.015 ‰ in experiment [1] (µM] -0.311313, runs/replicates); 4.1952 ‰ and 9.04 ‰ and 7.8226 ‰ and -0.03038 ‰ and -2.726 ‰ and -0.9924 ‰ in experiment [1] (µM] -0.913284, runs/replicates); 0.7011 ‰ and -0.01526 ‰ and 1.427 ‰ and -0.3532 ‰ in experiment [1] (µM] -1.5157, runs/replicates). For the same compound, the Fnorm in experiment [1] (µM] 0.591766, runs/replicates) is 720.204 ‰ and 719.528 ‰ and 720.009 ‰ and 710.951 ‰ and 712.028 ‰ and 710.045 ‰; in experiment [1] (µM] 0.89279, runs/replicates), 707.045 ‰ and 706.21 ‰ and 707.599 ‰ and 712.366 ‰ and 717.383 ‰ and 715.011 ‰; in experiment [1] (setting [3]), 719.086 ‰ and 717.41 ‰ and 720.947 ‰ and 702.669 ‰ and 704.446 ‰ and 706.633 ‰; in experiment [1] (µM] -0.311313, runs/replicates), 708.837 ‰ and 708.507 ‰ and 711.851 ‰ and 715.421 ‰ and 715.382 ‰ and 715.065 ‰; in experiment [1] (µM] -0.913284, runs/replicates), 718.635 ‰ and 720.79 ‰ and 721.133 ‰ and 712.12 ‰ and 710.604 ‰ and 713.058 ‰; in experiment [1] (µM] -1.5157, runs/replicates) it was 715.141 ‰ and 711.735 ‰ and 714.737 ‰ and 711.797 ‰ and 713.155 ‰ and 719.464 ‰. Also, the dissociation constant (Kd) (usually the equilibrium constant for the complex coming apart) in experiment [1] (MST, without irradiation, 25 °C) was 18.1 µM. Moreover, the IC50 (commonly the concentration needed to halve the response being measured) in experiment [2] came out at 68.2 µM.

For the origin of these results see paper PMC11292009, “Mapping protein binding sites by photoreactive fragment pharmacophores” (Communications Chemistry, 2024).
